Non-standard residues stand in square brackets, D forms with d. *: point of attachment. Biotin = O=C1N[C@H]2[C@H](CS[C@H]2CCCCC(=O)*)N1; Cit = NC(=O)NCCC[C@H](N)C(=O)O

Assay [1] has as its system anti-citrullinated protein antibodies (ACPAs). The conditions noted are these: FIG. 3 and FIG. 7; compared with the other peptides tested. How it is done: (§1) This example describes an enzyme-linked immunosorbent assay (ELISA) for detecting (e.g., measuring) the presence (or absence) or level of anti-citrullinated protein antibodies (ACPAs) in an individual's sample. As a non-limiting example, a 96-well immunoassay plate was coated with avidin (e.g., neutravidin) and the plate was blocked with 5% bovine serum albumin in phosphate buffered saline. Biotinylated synthetic citrullinated peptides of the present invention were incubated with the avidin-coated plate. […] Unbound samples were washed out and RA-associated autoantibodies directed against the immobilized citrullinated peptide were detected with an enzyme-labeled (e.g., HRP-labeled) anti-human IgA, IgG, IgM, or IgA/G/M secondary antibody.

Another assay concerns IgA/G/M ACPAs. How it is done:
as §1

For another assay, the system named is IgG ACPAs. Put plainly: ACPA ELISA with anti-human IgG secondary antibody. The note with it: for IgG ACPA positive response (strong/moderate): Example 7, FIGS. 20-27. Format: binding. How it is done: The synthetic citrullnated peptides set forth in Example 6, which were designed from synovial proteins, were synthesized and evaluated for their ability to diagnose and/or prognose RA. […] The peptides were then tested for IgG ACPA dose-response in samples of synovial fluid taken from both healthy patients and patients with RA.

The next assay relates to IgM ACPAs. How it is done: as §1
In the next assay the test system is IgA ACPAs. How it is done:
as §1

Turning to “Biotin-[Cit]PAPPPISGGGY[Cit]A[Cit]-NH2 [FB3]”, the “dose-response curve in ACPA ELISA (in words)” value (from here on “dose-response curve”) in assay [1] is on record as “stronger dose-response curve”.
As for “Biotin-GGGATRSSAVRL[Cit]SSVPGVRLLQDS-NH2 [VMT3]”, in the assay with IgA/G/M ACPAs, the “sensitivity for autoantibodies of the IgA/G/M classes (in words)” value is on record as “particularly high sensitivity”. The “dose-response curve” value in assay [1] is “strong dose-response curves”. Also, the “sensitivity for autoantibodies of the IgG class (in words)” value in the assay on IgG ACPAs is on record as “particularly high sensitivity”.
With “Biotin-GGGATRSSAV[Cit]LRSSVPGVRLLQDS-NH2 [VMT2]”, in the assay on IgM ACPAs, the “sensitivity for autoantibodies of the IgM class (in words)” value was “particularly high sensitivity”. In addition, the “dose-response curve” value in assay [1] was “strong dose-response curves”. In addition, in the assay on IgA ACPAs, the “sensitivity for autoantibodies of the IgA class (in words)” value is listed as “particularly high sensitivity”. The “IgG ACPA positive response (strong/moderate)” value in the assay on IgG ACPAs is “moderate”.
On to “Biotin-GGGAT[Cit]SSAV[Cit]L[Cit]SSVPGV[Cit]LLQDS-NH2 [VMT5]”, for which the “dose-response curve” value in assay [1] is given as “weak dose-response curve”.
In the case of “FBNT-3: synthetic citrullinated peptide derived from fibronectin, Table 8 (Biotin-GVLV[Cit]WTPPRLVRWTPP[Cit]AQG-NH2; SMILES CC(C)C[C@H](NC(=O)[C@H](CCCNC(=N)N)NC(=O)[C@@H]1CCCN1C(=O)[C@@H]1CCCN1C(=O)[C@@H](NC(=O)[C@H](Cc1c[nH]c2ccccc12)NC(=O)[C@H](CCCNC(N)=O)NC(=O)[C@@H](NC(=O)[C@H](CC(C)C)NC(=O)[C@@H](NC(=O)CNC(=O)CCCC[C@@H]1SC[C@@H]2NC(=O)N[C@@H]21)C(C)C)C(C)C)[C@@H](C)O)C(=O)N[C@H](C(=O)N[C@@H](CCCNC(=N)N)C(=O)N[C@@H](Cc1c[nH]c2ccccc12)C(=O)N[C@H](C(=O)N1CCC[C@H]1C(=O)N1CCC[C@H]1C(=O)N[C@@H](CCCNC(N)=O)C(=O)N[C@@H](C)C(=O)N[C@@H](CCC(N)=O)C(=O)NCC(N)=O)[C@@H](C)O)C(C)C)”, the “IgG ACPA positive response (strong/moderate)” value in the assay with IgG ACPAs is reported as “moderate”.
For the substance “Apo a-4: synthetic citrullinated peptide derived from Apolipoprotein a, Table 8 (Biotin-HWHQ[Cit]TTEYYPNGGLT[Cit]GGLTRNYS[Cit]N-NH2; SMILES CC(C)C[C@H](NC(=O)CNC(=O)CNC(=O)[C@H](CC(N)=O)NC(=O)[C@@H]1CCCN1C(=O)[C@H](Cc1ccc(O)cc1)NC(=O)[C@H](Cc1ccc(O)cc1)NC(=O)[C@H](CCC(=O)O)NC(=O)[C@@H](NC(=O)[C@@H](NC(=O)[C@H](CCCNC(N)=O)NC(=O)[C@H](CCC(N)=O)NC(=O)[C@H](Cc1c[nH]cn1)NC(=O)[C@H](Cc1c[nH]c2ccccc12)NC(=O)[C@H](Cc1c[nH]cn1)NC(=O)CCCC[C@@H]1SC[C@@H]2NC(=O)N[C@@H]21)[C@@H](C)O)[C@@H](C)O)C(=O)N[C@H](C(=O)N[C@@H](CCCNC(N)=O)C(=O)NCC(=O)NCC(=O)N[C@@H](CC(C)C)C(=O)N[C@H](C(=O)N[C@@H](CCCNC(=N)N)C(=O)N[C@@H](CC(N)=O)C(=O)N[C@@H](Cc1ccc(O)cc1)C(=O)N[C@@H](CO)C(=O)N[C@@H](CCCNC(N)=O)C(=O)N[C@@H](CC(N)=O)C(N)=O)[C@@H](C)O)[C@@H](C)O)”, the “IgG ACPA positive response (strong/moderate)” value in the assay on IgG ACPAs is “strong”.
Consider “T9α1-4: synthetic citrullinated peptide derived from collagen (Coll.T9α1), Table 8 (Biotin-QHIKQVSM[Cit]VIQEHFAEMAASLK[Cit]G-NH2; SMILES CC[C@H](C)[C@H](NC(=O)[C@H](Cc1c[nH]cn1)NC(=O)[C@H](CCC(N)=O)NC(=O)CCCC[C@@H]1SC[C@@H]2NC(=O)N[C@@H]21)C(=O)N[C@@H](CCCCN)C(=O)N[C@@H](CCC(N)=O)C(=O)N[C@H](C(=O)N[C@@H](CO)C(=O)N[C@@H](CCSC)C(=O)N[C@@H](CCCNC(N)=O)C(=O)N[C@H](C(=O)N[C@H](C(=O)N[C@@H](CCC(N)=O)C(=O)N[C@@H](CCC(=O)O)C(=O)N[C@@H](Cc1c[nH]cn1)C(=O)N[C@@H](Cc1ccccc1)C(=O)N[C@@H](C)C(=O)N[C@@H](CCC(=O)O)C(=O)N[C@@H](CCSC)C(=O)N[C@@H](C)C(=O)N[C@@H](C)C(=O)N[C@@H](CO)C(=O)N[C@@H](CC(C)C)C(=O)N[C@@H](CCCCN)C(=O)N[C@@H](CCCNC(N)=O)C(=O)NCC(N)=O)[C@@H](C)CC)C(C)C)C(C)C)”, for which, in the assay on IgG ACPAs, the “IgG ACPA positive response (strong/moderate)” value was “strong”.
The same measure, in the same setting: next, “FIB-G1: synthetic citrullinated peptide derived from fibrin (gamma-chain), Table 8 (Biotin-GYVAT[Cit]DNSSILDE[Cit]FGSRILTHDSSI[Cit]YR-NH2; SMILES CC[C@H](C)[C@H](NC(=O)[C@H](CO)NC(=O)[C@H](CO)NC(=O)[C@H](CC(=O)O)NC(=O)[C@H](Cc1c[nH]cn1)NC(=O)[C@@H](NC(=O)[C@H](CC(C)C)NC(=O)[C@@H](NC(=O)[C@H](CCCNC(=N)N)NC(=O)[C@H](CO)NC(=O)CNC(=O)[C@H](Cc1ccccc1)NC(=O)[C@H](CCCNC(N)=O)NC(=O)[C@H](CCC(=O)O)NC(=O)[C@H](CC(=O)O)NC(=O)[C@H](CC(C)C)NC(=O)[C@@H](NC(=O)[C@H](CO)NC(=O)[C@H](CO)NC(=O)[C@H](CC(N)=O)NC(=O)[C@H](CC(=O)O)NC(=O)[C@H](CCCNC(N)=O)NC(=O)[C@@H](NC(=O)[C@H](C)NC(=O)[C@@H](NC(=O)[C@H](Cc1ccc(O)cc1)NC(=O)CNC(=O)CCCC[C@@H]1SC[C@@H]2NC(=O)N[C@@H]21)C(C)C)[C@@H](C)O)[C@@H](C)CC)[C@@H](C)CC)[C@@H](C)O)C(=O)N[C@@H](CCCNC(N)=O)C(=O)N[C@@H](Cc1ccc(O)cc1)C(=O)N[C@@H](CCCNC(=N)N)C(N)=O)”: “strong”; “MLBS-1: synthetic citrullinated peptide derived from myeloblastin, Table 8 (Biotin-HS[Cit]PYMASLQM[Cit]GNPGSH-NH2; SMILES CSCC[C@H](NC(=O)[C@H](Cc1ccc(O)cc1)NC(=O)[C@@H]1CCCN1C(=O)[C@H](CCCNC(N)=O)NC(=O)[C@H](CO)NC(=O)[C@H](Cc1c[nH]cn1)NC(=O)CCCC[C@@H]1SC[C@@H]2NC(=O)N[C@@H]21)C(=O)N[C@@H](C)C(=O)N[C@@H](CO)C(=O)N[C@@H](CC(C)C)C(=O)N[C@@H](CCC(N)=O)C(=O)N[C@@H](CCSC)C(=O)N[C@@H](CCCNC(N)=O)C(=O)NCC(=O)N[C@@H](CC(N)=O)C(=O)N1CCC[C@H]1C(=O)NCC(=O)N[C@@H](CO)C(=O)N[C@@H](Cc1c[nH]cn1)C(N)=O)”: “moderate”; “FBNT-5: synthetic citrullinated peptide derived from fibronectin, Table 8 (Biotin-RGVLTVSWE[Cit]STTPDITGY[Cit]ITTTPTNR-NH2; SMILES CC[C@H](C)[C@H](NC(=O)[C@H](CC(=O)O)NC(=O)[C@@H]1CCCN1C(=O)[C@@H](NC(=O)[C@@H](NC(=O)[C@H](CO)NC(=O)[C@H](CCCNC(N)=O)NC(=O)[C@H](CCC(=O)O)NC(=O)[C@H](Cc1c[nH]c2ccccc12)NC(=O)[C@H](CO)NC(=O)[C@@H](NC(=O)[C@@H](NC(=O)[C@H](CC(C)C)NC(=O)[C@@H](NC(=O)CNC(=O)[C@H](CCCNC(=N)N)NC(=O)CCCC[C@@H]1SC[C@@H]2NC(=O)N[C@@H]21)C(C)C)[C@@H](C)O)C(C)C)[C@@H](C)O)[C@@H](C)O)C(=O)N[C@H](C(=O)NCC(=O)N[C@@H](Cc1ccc(O)cc1)C(=O)N[C@@H](CCCNC(N)=O)C(=O)N[C@H](C(=O)N[C@H](C(=O)N[C@H](C(=O)N[C@H](C(=O)N1CCC[C@H]1C(=O)N[C@H](C(=O)N[C@@H](CC(N)=O)C(=O)N[C@@H](CCCNC(=N)N)C(N)=O)[C@@H](C)O)[C@@H](C)O)[C@@H](C)O)[C@@H](C)O)[C@@H](C)CC)[C@@H](C)O)”: “moderate”.
Turning to “FBNT-7: synthetic citrullinated peptide derived from fibronectin, Table 8 (Biotin-GP[Cit]EDRVPHSPRED[Cit]VPHS[Cit]NSITLTNG-NH2; SMILES CC[C@H](C)[C@H](NC(=O)[C@H](CO)NC(=O)[C@H](CC(N)=O)NC(=O)[C@H](CCCNC(N)=O)NC(=O)[C@H](CO)NC(=O)[C@H](Cc1c[nH]cn1)NC(=O)[C@@H]1CCCN1C(=O)[C@@H](NC(=O)[C@H](CCCNC(N)=O)NC(=O)[C@H](CC(=O)O)NC(=O)[C@H](CCC(=O)O)NC(=O)[C@H](CCCNC(=N)N)NC(=O)[C@@H]1CCCN1C(=O)[C@H](CO)NC(=O)[C@H](Cc1c[nH]cn1)NC(=O)[C@@H]1CCCN1C(=O)[C@@H](NC(=O)[C@H](CCCNC(=N)N)NC(=O)[C@H](CC(=O)O)NC(=O)[C@H](CCC(=O)O)NC(=O)[C@H](CCCNC(N)=O)NC(=O)[C@@H]1CCCN1C(=O)CNC(=O)CCCC[C@@H]1SC[C@@H]2NC(=O)N[C@@H]21)C(C)C)C(C)C)C(=O)N[C@H](C(=O)N[C@@H](CC(C)C)C(=O)N[C@H](C(=O)N[C@@H](CC(N)=O)C(=O)NCC(N)=O)[C@@H](C)O)[C@@H](C)O)”, the “IgG ACPA positive response (strong/moderate)” value in the assay on IgG ACPAs was “moderate”.
Regarding “Biotin-HSTK[Cit]GHAKSRPV[Cit]G-NH2 [FB4]”, in assay [1], the “dose-response curve” value is given as “stronger dose-response curve”.

These data come from patent US8519096B2, “Citrullinated peptides for diagnosing and prognosing rheumatoid arthritis” (Nestec S.A., priority 2009, dated 2013).
